Results: US12503436B2, “Compounds and compositions for treating conditions associated with STING activity” (NOVARTIS PHARMA AG, priority 2021, dated 2025)
pEC50: −log10 of the molar value.

These compounds were tested against STING (Homo sapiens, UniProt Q86WV6, G230A/H232R/R293Q/R71H) (assay: STING reporter assay in THP1-Dual KO-IFNAR2 cells (2′3′cGAMP stimulation, luciferase reporter)). Conditions: 15 μM 2′3′cGAMP stimulation, 24 h, read-out: Pharmaron, THP1_IFNAR2 STING 24 h Luci Normalized: GeoMean EC50.
Assay type: cell-based
Method in brief: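 EC50 from secreted luciferase (QUANTI-Luc Plus luminescence of supernatant) after 24 h at 37 °C, 5% CO2. Cells: THP1-Dual KO-IFNAR2, treated with compound (0.0017-100 μM final) plus lipofected 2′3′cGAMP at 15 μM final.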

STING, sequence (Q86WV6 whole entry R71H/G230A/H232R/R293Q): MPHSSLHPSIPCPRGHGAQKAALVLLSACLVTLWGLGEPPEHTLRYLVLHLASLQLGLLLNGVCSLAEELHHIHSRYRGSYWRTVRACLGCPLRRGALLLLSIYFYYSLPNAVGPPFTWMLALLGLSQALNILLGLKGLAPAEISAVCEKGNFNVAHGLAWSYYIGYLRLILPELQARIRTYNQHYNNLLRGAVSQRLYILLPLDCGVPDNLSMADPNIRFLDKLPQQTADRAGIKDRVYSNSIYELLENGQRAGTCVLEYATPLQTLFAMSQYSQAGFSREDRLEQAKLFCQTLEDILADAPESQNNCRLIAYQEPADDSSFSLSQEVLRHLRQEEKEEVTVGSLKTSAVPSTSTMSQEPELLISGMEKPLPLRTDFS

Compound	pEC50
O=C(Nc1c[nH]c2ccc(O[C@H]3C[C@@H](c4ccc(C(F)(F)F)cc4)C3)cc12)[C@H]1C[C@@H](O)C1 [Compound 337, cis-3-hydroxy-N-(5-(cis-3-(4-(trifluoromethyl)phenyl)cyclobutoxy)-1H-indol-3-yl)cyclobutane-1-carboxamide]	6.00 to 6.70
COCCN1CC(C)(C(=O)Nc2c[nH]c3ccc(O[C@H]4C[C@@H](c5ccc(C(F)(F)F)cc5)C4)cc23)C1 [Compound 422, 1-(2-methoxyethyl)-3-methyl-N-(5-(cis-3-(4-(trifluoromethyl)phenyl)cyclobutoxy)-1H-indol-3-yl)azetidine-3-carboxamide]	5.30 to 6.00
CN1CC(C(=O)Nc2c[nH]c3ccc(OCCc4ccc(C(F)(F)F)cc4)cc23)C1 [Compound 311, 1-methyl-N-(5-(4-(trifluoromethyl)phenethoxy)-1H-indol-3-yl)azetidine-3-carboxamide]	5.30 to 6.00
CC1(F)CC(C(=O)Nc2c[nH]c3ccc(OCCc4ccc(C(F)(F)F)cc4)cc23)C1 (centres unmarked) [Compound 380, 3-fluoro-3-methyl-N-(5-(4-(trifluoromethyl)phenethoxy)-1H-indol-3-yl)cyclobutane-1-carboxamide]	6.70 to 7.40
O=C(Nc1c[nH]c2ccc(O[C@H]3C[C@H](c4ccc(C(F)(F)F)cc4)C3)cc12)C1CC(Cl)C1 (stereo partly drawn) [Compound 554, 3-chloro-N-(5-(trans-3-(4-(trifluoromethyl)phenyl)cyclobutoxy)-1H-indol-3-yl)cyclobutane-1-carboxamide]	6.00 to 6.70
COC1CC(C(=O)Nc2c[nH]c3ccc(OCCc4ccc(C(F)(F)F)cc4)cc23)C1 (centres unmarked) [Compound 234, 3-methoxy-N-(5-(4-(trifluoromethyl)phenethoxy)-1H-indol-3-yl)cyclobutane-1-carboxamide]	6.70 to 7.40
O=C(Nc1c[nH]c2ccc(OCC[C@@H]3C[C@@H]4CN(CC(F)(F)F)C[C@@H]4C3)cc12)C1CC1 [Compound 182, N-(5-(2-((3aR,5r,6aS)-2-(2,2,2-trifluoroethyl)octahydrocyclopenta[c]pyrrol-5-yl)ethoxy)-1H-indol-3-yl)cyclopropanecarboxamide]	6.00 to 6.70
CC(=O)Nc1c[nH]c2ccc(OCCC3CCCN(CC(F)(F)F)C3)cc12 (single isomer, unassigned) [Compound 280]	5.30 to 6.00
O=C(Nc1c[nH]c2ccc(O[C@H]3C[C@@H](c4ccc(C(F)(F)F)cc4)C3)cc12)C1(F)CC1 [Compound 302, 1-fluoro-N-(5-(cis-3-(4-(trifluoromethyl)phenyl)cyclobutoxy)-1H-indol-3-yl)cyclopropane-1-carboxamide]	6.00 to 6.70
CC1(C(=O)Nc2c[nH]c3ccc(OCC[C@@H]4C[C@@H]5CN(CC(F)(F)F)C[C@@H]5C4)cc23)CC1 [Compound 379, 1-methyl-N-(5-(2-((3aR,5r,6aS)-2-(2,2,2-trifluoroethyl)octahydrocyclopenta[c]pyrrol-5-yl)ethoxy)-1H-indol-3-yl)cyclopropane-1-carboxamide]	6.00 to 6.70
CC1(C(=O)Nc2c[nH]c3ccc(O[C@H]4C[C@H](c5ccc(C(F)(F)F)cc5)C4)cc23)CCC1 [Compound 564, 1-methyl-N-(5-(trans-3-(4-(trifluoromethyl)phenyl)cyclobutoxy)-1H-indol-3-yl)cyclobutane-1-carboxamide]	6.70 to 7.40
CC(=O)Nc1c[nH]c2ccc(CC(C)Oc3ccc(C(F)(F)F)cc3)cc12 (centres unmarked) [Compound 287, N-(5-(2-(4-(trifluoromethyl)phenoxy)propyl)-1H-indol-3-yl)acetamide]	5.30 to 6.00
N#CC1CCC1C(=O)Nc1c[nH]c2ccc(O[C@H]3C[C@H](c4ccc(C(F)(F)F)cc4)C3)cc12 (stereo partly drawn) [Compound 467, 2-cyano-N-{5-[(1R,3R)-3-[4-(trifluoromethyl)phenyl]cyclobutoxy]-1H-indol-3-yl}cyclobutane-1-carboxamide]	6.00 to 6.70
CC(=O)Nc1c[nH]c2ccc(OCC[C@@H]3C[C@@H]4CN(C)C[C@@H]4C3)cc12 [Compound 292, N-(5-(2-((3aR,5r,6aS)-2-methyloctahydrocyclopenta[c]pyrrol-5-yl)ethoxy)-1H-indol-3-yl)acetamide]	4.00 to 5.30
COC1CC(C(=O)Nc2c[nH]c3ccc(OCC[C@@H]4C[C@@H]5CN(CC(F)(F)F)C[C@@H]5C4)cc23)C1 (stereo partly drawn) [Compound 345, 3-methoxy-N-(5-(2-((3aR,5r,6aS)-2-(2,2,2-trifluoroethyl)octahydrocyclopenta[c]pyrrol-5-yl)ethoxy)-1H-indol-3-yl)cyclobutane-1-carboxamide]	6.00 to 6.70
CC(=O)Nc1c[nH]c2ccc(OCCn3cc(C(F)(F)F)cn3)cc12 [Compound 197, N-(5-(2-(4-(trifluoromethyl)-1H-pyrazol-1-yl)ethoxy)-1H-indol-3-yl)acetamide]	4.00 to 5.30
N#CC1(C(=O)Nc2c[nH]c3ccc(CCOc4ccc(C(F)(F)F)cc4)cc23)CC1 [Compound 398, 1-cyano-N-(5-(2-(4-(trifluoromethyl)phenoxy)ethyl)-1H-indol-3-yl)cyclopropane-1-carboxamide]	6.00 to 6.70
O=C(Nc1c[nH]c2ccc(OCc3ccc(C(F)(F)F)cc3)cc12)C1(C(F)(F)F)CC1 [Compound 315, 1-(trifluoromethyl)-N-(5-((4-(trifluoromethyl)benzyl)oxy)-1H-indol-3-yl)cyclopropane-1-carboxamide]	6.00 to 6.70
O=C(Nc1c[nH]c2ccc(O[C@H]3C[C@@H](c4ccc(C(F)(F)F)cc4)C3)cc12)C1(CO)CCC1 [Compound 420, 1-(hydroxymethyl)-N-(5-(cis-3-(4-(trifluoromethyl)phenyl)cyclobutoxy)-1H-indol-3-yl)cyclobutane-1-carboxamide]	6.00 to 6.70
CC(=O)Nc1c[nH]c2ccc(C(O)CCc3ccc(C(F)(F)F)cc3)cc12 (centres unmarked) [Compound 282, N-(5-(1-hydroxy-3-(4-(trifluoromethyl)phenyl)propyl)-1H-indol-3-yl)acetamide]	5.30 to 6.00
CC(=O)Nc1c[nH]c2ccc(Oc3ccc(C(F)(F)F)cn3)cc12 [Compound 116, N-(5-((5-(trifluoromethyl)pyridin-2-yl)oxy)-1H-indol-3-yl)acetamide]	4.00 to 5.30
CC(Cc1ccc(C(F)(F)F)cc1)Cc1ccc2[nH]cc(NC(=O)C3CCC3)c2c1 (centres unmarked) [Compound 137, N-(5-(2-methyl-3-(4-(trifluoromethyl)phenyl)propyl)-1H-indol-3-yl)cyclobutanecarboxamide]	5.30 to 6.00

The next lines start with the values.

pEC50	Compound
6.70 to 7.40	CC1(C(=O)Nc2c[nH]c3ccc(OCCc4ccc(C(F)(F)F)cc4)cc23)CN(CC(F)F)C1 [Compound 561, 1-(2,2-difluoroethyl)-3-methyl-N-(5-(4-(trifluoromethyl)phenethoxy)-1H-indol-3-yl)azetidine-3-carboxamide]
6.00 to 6.70	C[C@]1(C(=O)Nc2c[nH]c3ccc(OCc4ccc(C(F)(F)F)cc4)cc23)CC[C@H](O)CC1 [Compound 418, trans-4-hydroxy-1-methyl-N-(5-((4-(trifluoromethyl)benzyl)oxy)-1H-indol-3-yl)cyclohexane-1-carboxamide]
6.00 to 6.70	C[C@]1(C(=O)Nc2c[nH]c3ccc(OCc4ccc(C(F)(F)F)cc4)cc23)C[C@H](CO)C1 [Compound 416, cis-3-(hydroxymethyl)-1-methyl-N-(5-((4-(trifluoromethyl)benzyl)oxy)-1H-indol-3-yl)cyclobutane-1-carboxamide]
6.00 to 6.70	O=C(Nc1c[nH]c2ccc(OCCC3CCCN(CC(F)(F)F)C3)cc12)C1CC1 (centres unmarked) [Compound 498, N-(5-(2-(1-(2,2,2-trifluoroethyl)piperidin-3-yl)ethoxy)-1H-indol-3-yl)cyclopropanecarboxamide]
6.00 to 6.70	CC(=O)Nc1c[nH]c2ccc(CCOc3ccc(OC(F)(F)F)nc3)cc12 [Compound 471, N-[5-(2-{[6-(trifluoromethoxy)pyridin-3-yl]oxy}ethyl)-1H-indol-3-yl]acetamide]
5.30 to 6.00	CC(=O)Nc1c[nH]c2ccc(OC(C)c3ccc(C(F)(F)F)cc3)cc12 (centres unmarked) [Compound 497, N-(5-(1-(4-(trifluoromethyl)phenyl)ethoxy)-1H-indol-3-yl)acetamide]
6.00 to 6.70	O=C(Nc1c[nH]c2ccc(CCOc3ccc(C(F)(F)F)cc3)cc12)C1(F)CC1 [Compound 400, 1-fluoro-N-(5-(2-(4-(trifluoromethyl)phenoxy)ethyl)-1H-indol-3-yl)cyclopropane-1-carboxamide]
6.00 to 6.70	CC(=O)Nc1c[nH]c2ccc(CCOc3ccnc(OC(F)F)c3)cc12 [Compound 491, N-[5-(2-{[2-(difluoromethoxy)pyridin-4-yl]oxy}ethyl)-1H-indol-3-yl]acetamide]
4.00 to 5.30	CC(=O)Nc1c[nH]c2ccc(OCC3Cc4cn(CC(F)(F)F)nc4C3)cc12 (centres unmarked) [Compound 447, N-(5-((2-(2,2,2-trifluoroethyl)-2,4,5,6-tetrahydrocyclopenta[c]pyrazol-5-yl)methoxy)-1H-indol-3-yl)acetamide]
6.00 to 6.70	CC(=O)Nc1c[nH]c2ccc(CCOc3ccc(Cl)cc3C(F)(F)F)cc12 [Compound 450, N-(5-{2-[4-chloro-2-(trifluoromethyl)phenoxy]ethyl}-1H-indol-3-yl)acetamide]
5.30 to 6.00	CC(=O)Nc1c[nH]c2ccc(CCOc3ccc(-c4csc(C)n4)cc3)cc12 [Compound 475, N-(5-{2-[4-(2-methyl-1,3-thiazol-4-yl)phenoxy]ethyl} -1H-indol-3-yl)acetamide]
6.00 to 6.70	COCCOCC(=O)Nc1c[nH]c2ccc(CCOc3ccc(C(F)(F)F)cc3)cc12 [Compound 406, 2-(2-methoxyethoxy)-N-(5-(2-(4-(trifluoromethyl)phenoxy)ethyl)-1H-indol-3-yl)acetamide]
6.00 to 6.70	2,2-dimethyl-N-(5-(2-((3aR,5r,6aS)-2-(2,2,2-trifluoroethyl)octahydrocyclopenta[c]pyrrol-5-yl)ethoxy)-1H-indol-3-yl)cyclopropane-1-carboxamide [Compound 368]
